Assay results reported in ChEMBL document CHEMBL5321287, “Discovery, Synthesis, and Evaluation of Novel Dual Inhibitors of a Vascular Endothelial Growth Factor Receptor and Poly(ADP-Ribose) Polymerase for BRCA Wild-Type Breast Cancer Therapy” (J Med Chem, 2023).
pIC50: −log10 of the molar value. Calls of active or inactive are those of the source. No cut-off for these calls is given here.

Columns and labels:
MCF7 [1] = test: Antimigratory activity in human MCF7 cells assessed as downregulation of MMP-2 level at 4 uM in presence of 1:1 of compound:Olaparib by DAPI staining based immunofluorescence analysis; assay type: functional, cell-based
MDA-MB-231 [2] = test: Induction of DNA damage in human MDA-MB-231 cells assessed as increase in gamma-H2AX level at 4 uM incubated for 48 hrs in presence of 1:1 of compound:Olaparib by DAPI staining based immunofluorescence analysis; assay type: functional, cell-based
MDA-MB-231 [3] = test: Induction of HR DNA repair in human MDA-MB-231 cells xenografted in BALB/c nude mouse assessed as decrease in BRCA1 level at 50 mg/kg, po for 14 days in presence of 1:1 of compound:Olaparib by H and E staining based IHC analysis; assay type: functional, organism-based; conditions: time 14.0 day
MDA-MB-231 [4] = test: Induction of HR DNA repair in human MDA-MB-231 cells assessed as decrease in RAD51 level at 4 uM incubated for 48 hrs by DAPI staining based immunofluorescence analysis; assay type: functional, cell-based
MDA-MB-231 [5] = test: Induction of DNA damage in human MDA-MB-231 cells xenografted in BALB/c nude mouse assessed as increase in gamma-H2AX level at 50 mg/kg, po for 14 days in presence of 1:1 of compound:Olaparib by Western blot analysis; assay type: functional, organism-based; conditions: time 14.0 day
MDA-MB-231 [6] = test: Induction of HR DNA repair in human MDA-MB-231 cells xenografted in BALB/c nude mouse assessed as decrease in FOXM1 level at 50 mg/kg, po for 14 days in presence of 1:1 of compound:Olaparib by H and E staining based IHC analysis; assay type: functional, organism-based; conditions: time 14.0 day
MDA-MB-231 [7] = test: Antimigratory activity in human MDA-MB-231 cells assessed as upregulation of E-cadherin level at 4 uM incubated for 2 days by immunoblot analysis; assay type: functional, cell-based; conditions: time 2.0 day
MCF7 [8] = test: Induction of apoptosis in human MCF7 cells assessed as decrease in Bcl-2 level at 4 uM incubated for 2 days in presence of 1:1 of compound:Olaparib by immunoblot analysis; assay type: functional, cell-based; conditions: time 2.0 day
MCF7 [9] = test: Induction of apoptosis in human MCF7 cells assessed as increase in cleaved caspase-3 level at 4 uM incubated for 2 days in presence of 1:1 of compound:Olaparib by immunoblot analysis; assay type: functional, cell-based; conditions: time 2.0 day
MCF7 [10] = test: Downregulation of Olaparib-induced PAR expression in human MCF7 cells at 4 uM incubated for 2 days by Western blot analysis; assay type: functional, cell-based; conditions: time 2.0 day
MDA-MB-231 [11] = test: Antimigratory activity in human MDA-MB-231 cells assessed as downregulation of MMP-2 level at 4 uM in presence of 1:1 of compound:Olaparib by DAPI staining based immunofluorescence analysis; assay type: functional, cell-based
MCF7 [12] = test: Antimigratory activity in human MCF7 cells assessed as downregulation of MMP-2 level at 4 uM incubated for 2 days by immunoblot analysis; assay type: functional, cell-based; conditions: time 2.0 day
MCF7 [13] = test: Induction of hypoxia in human MCF7 cells assessed as upregulation of HIF-1alpha level at 4 uM incubated for 2 days in presence 1:1 of Olaparib by Western blot analysis; assay type: functional, cell-based; conditions: time 2.0 day
MDA-MB-231 [14] = test: Antimetastatic activity against human MDA-MB-231 cells xenografted in lungs of BALB/c nude mouse assessed as decrease in lung metastatic nodules at 50 mg/kg administered once a day measured after 14 days in presence of 1:1 of compound:Olaparib by H and E staining based analysis; assay type: functional, organism-based; conditions: time 14.0 day
MCF7 [15] = test: Induction of HR DNA repair in human MCF7 cells assessed as decrease in RAD51 level at 4 uM incubated for 48 hrs by DAPI staining based immunofluorescence analysis; assay type: functional, cell-based
MDA-MB-436 = test: cells; conditions: Homo sapiens
MCF7 [16] = test: Inhibition of colony formation in human MCF7 cells at 4 uM incubated for 10 days in presence of 1:1 of compound:Olaparib by crystal violet staining based assay; assay type: functional, cell-based; conditions: time 10.0 day
MDA-MB-231 [17] = test: Induction of HR DNA repair in human MDA-MB-231 cells xenografted in BALB/c nude mouse assessed as decrease in BRCA1 level at 50 mg/kg, po for 14 days in presence of 1:1 of compound:Pazopanib by H and E staining based IHC analysis; assay type: functional, organism-based; conditions: time 14.0 day
MDA-MB-231 [18] = test: Induction of HR DNA repair in human MDA-MB-231 cells xenografted in BALB/c nude mouse assessed as decrease in RAD51 level at 50 mg/kg, po for 14 days in presence of 1:1 of compound:Olaparib by Western blot analysis; assay type: functional, organism-based; conditions: time 14.0 day
[19] = molecular target: T1, Vascular endothelial growth factor receptor 1 (Homo sapiens, UniProt P17948); test: Inhibition of VEGFR1 phosphorylation at tyr1333 residue in human MDA-MB-231 cells xenografted in BALB/c nude mouse at 25 to 50 mg/kg, po for 14 days in presence of 1:1 of compound:Olaparib by Western blot analysis; assay type: organism-based; conditions: dose 25-50 mg/kg, time 14.0 day
MDA-MB-231 [20] = test: Antimigratory activity in human MDA-MB-231 cells assessed as upregulation of E-cadherin level at 4 uM by DAPI staining based immunofluorescence analysis; assay type: functional, cell-based
MDA-MB-231 [21] = test: Induction of DNA damage in human MDA-MB-231 cells xenografted in BALB/c nude mouse assessed as increase in gamma-H2AX level at 50 mg/kg, po for 14 days in presence of 1:1 of compound:Olaparib by H and E staining based IHC analysis; assay type: functional, organism-based; conditions: time 14.0 day
MDA-MB-231 [22] = test: cells; conditions: Homo sapiens
MCF7 [23] = test: Induction of cell cycle arrest at G2/M phase in human MCF7 cells at 4 uM by Annexin-V-FLUOS staining based flow cytometry; assay type: functional
MDA-MB-231 [24] = test: Antimigratory activity in human MDA-MB-231 cells xenografted in lungs of BALB/c nude mouse assessed as decrease in MMP2 level in lungs at 50 mg/kg administered once a day measured after 14 days in presence of 1:1 of compound:Olaparib by IHC analysis; assay type: functional, organism-based; conditions: time 14.0 day
MDA-MB-231 [25] = test: Induction of apoptosis in human MDA-MB-231 cells assessed as increase in Bax level at 4 uM incubated for 2 days in presence of 1:1 of compound:Olaparib by immunoblot analysis; assay type: functional, cell-based; conditions: time 2.0 day
MDA-MB-231 [26] = test: Antimetastatic activity against human MDA-MB-231 cells xenografted in lungs of BALB/c nude mouse assessed as decrease in lung metastatic nodules at 50 mg/kg administered once a day measured after 14 days in presence of 1:1 of compound:Olaparib; assay type: functional, organism-based; conditions: time 14.0 day
MCF7 [27] = test: Antiproliferative activity against human MCF7 cells assessed as cell growth inhibition
HCC1937 = test: Antiproliferative activity against human HCC1937 cells assessed as cell growth inhibition
[28] = molecular target: T1, Vascular endothelial growth factor receptor 1; test: Inhibition of VEGFR1 phosphorylation at tyr1333 residue in human MDA-MB-231 cells xenografted in BALB/c nude mouse at 50 mg/kg, po for 14 days in presence of 1:1 of compound:Olaparib by H and E staining based IHC analysis; assay type: organism-based; conditions: time 14.0 day
MCF7 [29] = test: Induction of HR DNA repair in human MCF7 cells assessed as decrease in RAD51 level at 4 uM incubated for 48 hrs in presence of 1:1 of compound:Olaparib by DAPI staining based immunofluorescence analysis; assay type: functional, cell-based
MDA-MB-231 [30] = test: Antimigratory activity in human MDA-MB-231 cells assessed as downregulation of MMP-2 level at 4 uM by DAPI staining based immunofluorescence analysis; assay type: functional, cell-based

T1 sequence (P17948 whole entry): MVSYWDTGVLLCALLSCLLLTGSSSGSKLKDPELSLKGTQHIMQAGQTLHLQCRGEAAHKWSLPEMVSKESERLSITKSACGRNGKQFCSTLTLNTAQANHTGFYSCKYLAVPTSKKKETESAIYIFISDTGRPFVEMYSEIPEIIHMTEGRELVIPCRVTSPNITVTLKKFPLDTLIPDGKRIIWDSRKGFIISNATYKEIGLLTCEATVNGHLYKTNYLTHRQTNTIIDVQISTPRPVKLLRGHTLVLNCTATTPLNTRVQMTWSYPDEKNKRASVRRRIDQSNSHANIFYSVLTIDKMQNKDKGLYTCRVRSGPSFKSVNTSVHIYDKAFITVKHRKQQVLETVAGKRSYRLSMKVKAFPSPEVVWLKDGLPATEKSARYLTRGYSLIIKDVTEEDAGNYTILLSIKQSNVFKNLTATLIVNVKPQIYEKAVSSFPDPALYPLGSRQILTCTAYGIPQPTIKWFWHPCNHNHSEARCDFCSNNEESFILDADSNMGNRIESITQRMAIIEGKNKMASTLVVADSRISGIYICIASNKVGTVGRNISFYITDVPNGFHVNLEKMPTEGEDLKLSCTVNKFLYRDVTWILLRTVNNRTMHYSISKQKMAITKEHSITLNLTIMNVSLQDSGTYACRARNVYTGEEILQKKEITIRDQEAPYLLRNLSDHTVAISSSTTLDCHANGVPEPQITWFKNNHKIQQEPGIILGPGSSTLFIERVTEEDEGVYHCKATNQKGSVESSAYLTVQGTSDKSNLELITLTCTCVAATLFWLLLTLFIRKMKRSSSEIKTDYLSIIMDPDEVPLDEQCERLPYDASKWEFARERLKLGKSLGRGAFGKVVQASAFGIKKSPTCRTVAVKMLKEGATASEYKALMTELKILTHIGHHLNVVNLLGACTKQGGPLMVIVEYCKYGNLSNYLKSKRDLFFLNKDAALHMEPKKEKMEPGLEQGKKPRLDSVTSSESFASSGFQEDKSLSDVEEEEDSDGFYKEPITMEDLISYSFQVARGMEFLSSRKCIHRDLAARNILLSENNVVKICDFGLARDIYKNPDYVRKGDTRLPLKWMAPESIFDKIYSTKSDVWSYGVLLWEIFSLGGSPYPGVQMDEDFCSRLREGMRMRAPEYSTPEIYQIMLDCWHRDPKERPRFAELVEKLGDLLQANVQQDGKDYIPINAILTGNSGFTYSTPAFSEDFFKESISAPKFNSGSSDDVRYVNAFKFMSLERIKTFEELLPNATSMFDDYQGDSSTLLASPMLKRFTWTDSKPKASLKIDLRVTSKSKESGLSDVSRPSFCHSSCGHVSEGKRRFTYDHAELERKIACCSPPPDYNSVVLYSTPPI

pIC50 (MDA-MB-436): < 5.00
inhibition [19]: Active
pIC50 (MDA-MB-231 [22]): < 5.00
pIC50 (MCF7 [27]): < 5.00
pIC50 (HCC1937): < 5.00
inhibition [28]: Active
Compound: Cc1ccc(Nc2nccc(N(C)c3ccc4c(C)n(C)nc4c3)n2)cc1S(N)(=O)=O [PAZOPANIB]
Activity (MCF7 [1]): Active
Activity (MDA-MB-231 [2]): Active
Activity (MDA-MB-231 [3]): Active
Activity (MDA-MB-231 [4]): Active
Activity (MDA-MB-231 [5]): Active
Activity (MDA-MB-231 [6]): Active
Activity (MDA-MB-231 [7]): Active
Activity (MCF7 [8]): Active
Activity (MCF7 [9]): Active
Activity (MCF7 [10]): inactive
Activity (MDA-MB-231 [11]): Active
Activity (MCF7 [12]): Active
Activity (MCF7 [13]): Active
Activity (MDA-MB-231 [14]): Active
Activity (MCF7 [15]): Active
inhibition (MCF7 [16]): Active
Activity (MDA-MB-231 [17]): Active
Activity (MDA-MB-231 [18]): Active
Activity (MDA-MB-231 [20]): Active
Activity (MDA-MB-231 [21]): Active
Activity (MCF7 [23]): Active
Activity (MDA-MB-231 [24]): Active
Activity (MDA-MB-231 [25]): Active
Activity (MDA-MB-231 [26]): Active
Activity (MCF7 [29]): Active
Activity (MDA-MB-231 [30]): Active
